Results taken from patent US10428027B2, “Sulfinylphenyl or sulfonimidoylphenyl benzazepines” (Hoffmann La-Roche Inc., priority 2015, dated 2019).

How the values were obtained:
human TLR8 = biological target: T1, human TLR8 (Homo sapiens, UniProt Q9NR97); test: HEK-Blue human TLR8 cells, NF-κB SEAP reporter assay; assay type: cell-based; conditions: stimulation for 20 hours, SEAP reporter read at 640 nm
T1 construct: host or cells: HEK-Blue human TLR8 cells (HEK293-derived; own knowledge: stably transfected with the human TLR8 gene)
T1 sequence (Q9NR97 27-1041): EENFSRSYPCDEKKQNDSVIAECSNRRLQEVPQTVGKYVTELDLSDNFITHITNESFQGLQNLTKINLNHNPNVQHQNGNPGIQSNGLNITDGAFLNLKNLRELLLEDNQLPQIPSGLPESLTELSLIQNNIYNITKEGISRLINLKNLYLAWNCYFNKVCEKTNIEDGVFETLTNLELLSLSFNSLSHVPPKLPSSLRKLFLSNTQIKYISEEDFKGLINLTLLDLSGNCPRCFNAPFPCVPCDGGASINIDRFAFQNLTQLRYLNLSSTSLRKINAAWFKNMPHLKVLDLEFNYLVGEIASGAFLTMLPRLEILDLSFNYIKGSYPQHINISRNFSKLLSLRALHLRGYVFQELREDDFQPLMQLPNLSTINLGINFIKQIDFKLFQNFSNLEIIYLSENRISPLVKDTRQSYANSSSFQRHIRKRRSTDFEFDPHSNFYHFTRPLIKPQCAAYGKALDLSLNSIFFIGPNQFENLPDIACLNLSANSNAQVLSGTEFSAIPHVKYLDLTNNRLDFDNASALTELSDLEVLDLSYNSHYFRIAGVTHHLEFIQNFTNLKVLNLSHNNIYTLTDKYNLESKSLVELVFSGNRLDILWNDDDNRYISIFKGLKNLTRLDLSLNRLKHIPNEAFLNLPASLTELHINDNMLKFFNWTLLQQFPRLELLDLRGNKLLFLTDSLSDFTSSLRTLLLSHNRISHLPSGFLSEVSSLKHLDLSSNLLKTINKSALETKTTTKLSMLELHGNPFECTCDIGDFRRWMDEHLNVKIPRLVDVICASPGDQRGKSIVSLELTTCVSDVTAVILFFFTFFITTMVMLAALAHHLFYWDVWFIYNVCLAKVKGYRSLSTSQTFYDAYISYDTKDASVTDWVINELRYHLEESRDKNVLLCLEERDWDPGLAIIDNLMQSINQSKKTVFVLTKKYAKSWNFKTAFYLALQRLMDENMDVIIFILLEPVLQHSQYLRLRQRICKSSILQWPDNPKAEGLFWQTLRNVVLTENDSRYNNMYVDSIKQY
Description: (§1) For TLR8 and TLR7 activity testing, HEK-Blue human TLR8 or TLR7 cells (Invivogen, San Diego, Calif., USA) are used, respectively. These cells are designed for studying the stimulation of human TLR8 or TLR7 by monitoring the activation of NF-κB. A SEAP (secreted embryonic alkaline phosphatase) reporter gene is placed under the control of the IFN-b minimal promoter fused to five NF-κB and AP-1-binding sites. Therefore the reporter expression is regulated by the NF-κB promoter upon stimulation of human TLR8 or TLR7 for 20 hours. The cell culture supernatant SEAP reporter activity was determined using Quanti Blue kit (Invivogen, San Diego, Ca, USA) at a wavelength of 640 nm, a detection medium that turns purple/blue in the presence of alkaline phosphatase.

human TLR7 = biological target: T2, human TLR7 (Homo sapiens, UniProt Q9NYK1); test: HEK-Blue human TLR7 cells, NF-κB SEAP reporter assay; assay type: cell-based; conditions: stimulation for 20 hours, SEAP reporter read at 640 nm
T2 construct: host or cells: HEK-Blue human TLR7 cells (HEK293-derived; own knowledge: stably transfected with the human TLR7 gene)
T2 sequence (Q9NYK1 27-1049): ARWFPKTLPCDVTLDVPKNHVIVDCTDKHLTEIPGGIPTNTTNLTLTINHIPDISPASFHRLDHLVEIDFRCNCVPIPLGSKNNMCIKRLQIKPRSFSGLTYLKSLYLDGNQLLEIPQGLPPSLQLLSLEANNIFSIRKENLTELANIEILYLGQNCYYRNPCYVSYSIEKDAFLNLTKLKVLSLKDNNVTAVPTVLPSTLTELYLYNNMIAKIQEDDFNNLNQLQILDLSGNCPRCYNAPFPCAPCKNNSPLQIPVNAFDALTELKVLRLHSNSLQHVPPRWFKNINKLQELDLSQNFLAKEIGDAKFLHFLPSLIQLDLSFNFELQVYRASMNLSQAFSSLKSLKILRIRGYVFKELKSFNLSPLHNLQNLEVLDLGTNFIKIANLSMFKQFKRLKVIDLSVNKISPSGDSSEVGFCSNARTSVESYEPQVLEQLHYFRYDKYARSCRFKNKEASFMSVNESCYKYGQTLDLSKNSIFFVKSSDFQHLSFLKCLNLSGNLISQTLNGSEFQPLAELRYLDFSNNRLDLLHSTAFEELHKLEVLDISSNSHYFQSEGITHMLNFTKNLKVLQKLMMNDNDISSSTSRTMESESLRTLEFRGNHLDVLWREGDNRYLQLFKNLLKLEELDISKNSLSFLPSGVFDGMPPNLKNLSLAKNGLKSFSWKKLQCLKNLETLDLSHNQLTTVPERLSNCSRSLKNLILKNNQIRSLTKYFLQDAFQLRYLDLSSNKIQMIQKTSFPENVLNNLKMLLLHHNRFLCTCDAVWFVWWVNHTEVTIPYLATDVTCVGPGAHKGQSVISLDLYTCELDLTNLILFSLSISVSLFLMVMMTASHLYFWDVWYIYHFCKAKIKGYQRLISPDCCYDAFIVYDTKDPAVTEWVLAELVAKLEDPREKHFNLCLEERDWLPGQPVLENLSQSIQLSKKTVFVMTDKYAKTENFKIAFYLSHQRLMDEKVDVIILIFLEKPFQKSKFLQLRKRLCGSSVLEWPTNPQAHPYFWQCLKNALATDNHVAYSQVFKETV
Description: as §1

EC50 (human TLR8) | EC50 (human TLR7) | Compound
0.008 µM | 16 µM | CCCN(CCC)C(=O)C1=Cc2ccc(-c3cccc([S+]([O-])CC)c3)cc2N=C(N)C1 (stereo not shown) [Example 10, 2-Amino-8-(3-ethylsulfinylphenyl)-N,N-dipropyl-3H-1-benzazepine-4-carboxamide]
0.021 µM | 23 µM | CCCN(CCC)C(=O)C1=Cc2ccc(-c3ccc([S+]([O-])CC)cc3)cc2N=C(N)C1 (stereo not shown) [Example 8, 2-Amino-8-(4-ethylsulfinylphenyl)-N,N-dipropyl-3H-1-benzazepine-4-carboxamide]
0.025 µM | 25 µM | CCCN(CCC)C(=O)C1=Cc2ccc(-c3ccc(S(C)(=N)=O)cc3)cc2N=C(N)C1 (stereo not shown) [Example 2, 2-Amino-8-[4-(methylsulfonimidoyl)phenyl]-N,N-dipropyl-3H-1-benzazepine-4-carboxamide]
0.004 µM | 12.1 µM | CCCN(CCC)C(=O)C1=Cc2ccc(-c3cccc([S+](C)[O-])c3)cc2N=C(N)C1 (stereo not shown) [Example 5, 2-Amino-8-(3-methylsulfinylphenyl)-N,N-dipropyl-3H-1-benzazepine-4-carboxamide]
0.026 µM | 19 µM | CCCN(CCC)C(=O)C1=Cc2ccc(-c3ccc([S+](C)[O-])cc3)cc2N=C(N)C1 (stereo not shown) [Example 1, 2-Amino-8-(4-methylsulfinylphenyl)-N,N-dipropyl-3H-1-benzazepine-4-carboxamide]
0.008 µM | 2.4 µM | CCCN(CCC)C(=O)C1=Cc2ccc(-c3cncc([S+](C)[O-])c3)cc2N=C(N)C1 (stereo not shown) [Example 4, 2-Amino-8-(5-methylsulfinyl-3-pyridyl)-N,N-dipropyl-3H-1-benzazepine-4-carboxamide]
0.013 µM | 15.4 µM | CCCN(CCC)C(=O)C1=Cc2ccc(-c3cccc(S(C)(=N)=O)c3)cc2N=C(N)C1 (stereo not shown) [Example 7, 22-Amino-8-[3-(methylsulfonimidoyl)phenyl]-N,N-dipropyl-3H-1-benzazepine-4-carboxamide]
0.025 µM | 32 µM | CCCN(CCC)C(=O)C1=Cc2ccc(-c3ccc(S(=N)(=O)CC)cc3)cc2N=C(N)C1 (stereo not shown) [Example 9, 2-Amino-8-[4-(ethylsulfonimidoyl)phenyl]-N,N-dipropyl-3H-1-benzazepine-4-carboxamide]
0.015 µM | 39 µM | CCCN(CCC)C(=O)C1=Cc2ccc(-c3cccc(S(=N)(=O)CC)c3)cc2N=C(N)C1 (stereo not shown) [Example 11, 2-Amino-8-[3-(ethylsulfonimidoyl)phenyl]-N,N-dipropyl-3H-1-benzazepine-4-carboxamide]
0.011 µM | 55 µM | CCCN(CCC)C(=O)C1=Cc2ccc(-c3cccc(S(C)(=O)=NCCOCCO)c3)cc2N=C(N)C1 (stereo not shown) [Example 3, 2-Amino-8-[3-[N-[2-(2-hydroxyethoxy)ethyl]-S-methyl-sulfonimidoyl]phenyl]-N,N-dipropyl-3H-1-benzazepine-4-carboxamide]
0.028 µM | 14.8 µM | CCCN(CCC)C(=O)C1=Cc2ccc(-c3cncc(S(C)(=N)=O)c3)cc2N=C(N)C1 (stereo not shown) [Example 6, 2-Amino-8-[5-(methylsulfonimidoyl)-3-pyridyl]-N,N-dipropyl-3H-1-benzazepine-4-carboxamide]
